From patent US20150079000A1, “Labelled Quinoxaline Derivatives as Multimodal Radiopharmaceuticals and Their Precursors” (INSTITUT NATIONAL DE LA SANTET DE LA RECHERCHE MEDICALE, priority 2012, published 2015)

Test system: B16 murine melanoma tumours
Experiment: Ex vivo biodistribution study for compound [125I](1)
Assay type: in vivo, C57BL/6J mice
Description: Twenty four B16BL6 primary melanoma bearing mice were intravenously injected with 2.2 MBq of [^1251]1 and sacrificed 1 h, 3 h, 6 h, 24 h, 72 h and 10 days after tracer injection (n=4/time point). Tumours and major organs and tissues were promptly excised, harvested, weighted and their radioactivity counted using a calibrated γ-counter with a […] energy window. After radioactive decay correction, results were expressed as percentage of injected dose per gram of tissue (% ID/g).

For CCN(CCNC(=O)c1cnc2cc([125I])ccc2n1)CCOCCOCCOCCF [[^125I](1)], the “% ID/g Blood” value (6 h p.i.) was 0.62 ± 0.20 % ID/g, the “% ID/g Bones” value (6 h p.i.) was 0.30 ± 0.10 % ID/g and the “% ID/g Brain” value (6 h p.i.) was 0.08 ± 0.03 % ID/g. For the same molecule, the “% ID/g Ceacum” value (6 h p.i.) was 23.31 ± 16.47 % ID/g, the “% ID/g Colon” value (6 h p.i.) was 15.92 ± 9.97 % ID/g and the “% ID/g Heart” value (6 h p.i.) was 0.46 ± 0.17 % ID/g. For the same molecule, the “% ID/g Kidney” value (6 h p.i.) was 1.56 ± 0.82 % ID/g, the “% ID/g Liver” value (6 h p.i.) was 2.02 ± 0.64 % ID/g and the “% ID/g Lung” value (6 h p.i.) was 1.04 ± 0.37 % ID/g. For the same molecule, the “% ID/g Muscle” value (6 h p.i.) was 0.17 ± 0.07 % ID/g, the “% ID/g Pancreas” value (6 h p.i.) was 0.65 ± 0.18 % ID/g and the “% ID/g Skin” value (6 h p.i.) was 0.62 ± 0.31 % ID/g. The “% ID/g Small intestine” value (6 h p.i.) was 2.23 ± 1.35 % ID/g, the “% ID/g Spleen” value (6 h p.i.) was 6.45 ± 8.15 % ID/g and the “% ID/g Stomach” value (6 h p.i.) was 7.39 ± 4.08 % ID/g. For the same molecule, the “% ID/g Testes” value (6 h p.i.) was 0.36 ± 0.08 % ID/g, the “% ID/g Adipose” value (24 h p.i.) was 0.028 ± 0.00 % ID/g and the “% ID/g Blood” value (24 h p.i.) was 0.06 ± 0.01 % ID/g. For the same molecule, the “% ID/g Bones” value (24 h p.i.) was 0.03 ± 0.00 % ID/g, the “% ID/g Brain” value (24 h p.i.) was 0.01 ± 0.01 % ID/g and the “% ID/g Ceacum” value (24 h p.i.) was 0.41 ± 0.13 % ID/g. For the same molecule, the “% ID/g Colon” value (24 h p.i.) was 0.69 ± 0.23 % ID/g, the “% ID/g Heart” value (24 h p.i.) was 0.16 ± 0.06 % ID/g and the “% ID/g Kidney” value (24 h p.i.) was 0.15 ± 0.02 % ID/g. For the same molecule, the “% ID/g Liver” value (24 h p.i.) was 0.46 ± 0.10 % ID/g, the “% ID/g Lung” value (24 h p.i.) was 0.08 ± 0.01 % ID/g and the “% ID/g Muscle” value (24 h p.i.) was 0.02 ± 0.00 % ID/g. The “% ID/g Pancreas” value (24 h p.i.) was 0.05 ± 0.01 % ID/g, the “% ID/g Skin” value (24 h p.i.) was 0.17 ± 0.00 % ID/g and the “% ID/g Small intestine” value (24 h p.i.) was 0.12 ± 0.03 % ID/g. For the same molecule, the “% ID/g Spleen” value (24 h p.i.) was 0.06 ± 0.01 % ID/g, the “% ID/g Stomach” value (24 h p.i.) was 0.54 ± 0.25 % ID/g and the “% ID/g Testes” value (24 h p.i.) was 0.03 ± 0.01 % ID/g. For the same molecule, the “% ID/g Adipose” value (72 h p.i.) was 0.02 ± 0.00 % ID/g, the “% ID/g Bones” value (72 h p.i.) was 0.02 ± 0.01 % ID/g and the “% ID/g Brain” value (72 h p.i.) was 0.01 ± 0.00 % ID/g. For the same molecule, the “% ID/g Ceacum” value (72 h p.i.) was 0.33 ± 0.29 % ID/g, the “% ID/g Colon” value (72 h p.i.) was 0.25 ± 0.10 % ID/g and the “% ID/g Heart” value (72 h p.i.) was 0.08 ± 0.02 % ID/g. For the same molecule, the “% ID/g Kidney” value (72 h p.i.) was 0.24 ± 0.04 % ID/g, the “% ID/g Liver” value (72 h p.i.) was 0.08 ± 0.00 % ID/g and the “% ID/g Lung” value (72 h p.i.) was 0.05 ± 0.01 % ID/g. For the same molecule, the “% ID/g Muscle” value (72 h p.i.) was 0.02 ± 0.00 % ID/g, the “% ID/g Pancreas” value (72 h p.i.) was 0.03 ± 0.01 % ID/g and the “% ID/g Skin” value (72 h p.i.) was 0.50 ± 0.26 % ID/g. The “% ID/g Small intestine” value (72 h p.i.) was 0.07 ± 0.03 % ID/g, the “% ID/g Spleen” value (72 h p.i.) was 0.52 ± 0.96 % ID/g and the “% ID/g Stomach” value (72 h p.i.) was 0.16 ± 0.05 % ID/g. For the same molecule, the “% ID/g Testes” value (72 h p.i.) was 0.02 ± 0.00 % ID/g, the “% ID/g Adipose” value (10 d p.i.) was 0.01 ± 0.01 % ID/g and the “% ID/g Bones” value (10 d p.i.) was 0.01 ± 0.01 % ID/g. For the same molecule, the “% ID/g Brain” value (10 d p.i.) was 0.00 ± 0.00 % ID/g, the “% ID/g Ceacum” value (10 d p.i.) was 0.02 ± 0.02 % ID/g and the “% ID/g Colon” value (10 d p.i.) was 0.02 ± 0.01 % ID/g. The “% ID/g Heart” value (10 d p.i.) was 0.03 ± 0.01 % ID/g, the “% ID/g Kidney” value (10 d p.i.) was 0.04 ± 0.03 % ID/g and the “% ID/g Liver” value (10 d p.i.) was 0.01 ± 0.00 % ID/g. For the same molecule, the “% ID/g Lung” value (10 d p.i.) was 0.01 ± 0.01 % ID/g, the “% ID/g Muscle” value (10 d p.i.) was 0.01 ± 0.06 % ID/g and the “% ID/g Pancreas” value (10 d p.i.) was 0.02 ± 0.03 % ID/g. For the same molecule, the “% ID/g Skin” value (10 d p.i.) was 0.05 ± 0.06 % ID/g, the “% ID/g Small intestine” value (10 d p.i.) was 0.01 ± 0.00 % ID/g and the “% ID/g Spleen” value (10 d p.i.) was 0.23 ± 0.41 % ID/g. For the same molecule, the “% ID/g Stomach” value (10 d p.i.) was 0.03 ± 0.01 % ID/g and the “% ID/g Testes” value (10 d p.i.) was 0.00 ± 0.00 % ID/g.
